Data on ten molecules can be found in PubChem BioAssay (NCI).

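Test compounds were applied to cells in 96-well plates for 48 hours at 5 doses. Here, GI50 denotes the concentration required for 50% inhibition of growth. TGI: concentration producing complete growth inhibition.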

What all share (experiment): inhibition of tumour cell growth, NCI panel, 48 h
Assay [1] concerns HCT-15 colon.
In assay [2] the test system is EKVX NSCLC.
The test system of assay [3] is HT29 colon.
The test system of assay [4] is ACHN renal.
Assay [5] relates to UO-31 renal.
Assay [6] deals with CCRF-CEM leukemia.
In assay [7] the test system is SF-268 CNS.
Assay [8] concerns KM12 colon.
Assay [9] has as its system A498 renal.
Assay [10] relates to HCT-116 colon.

In the case of `O=P1(S)OC[C@H]2O[C@@H]3[C@H](F)[C@@H]2OP(O)(=S)OC[C@H]2O[C@H]([C@H](F)[C@@H]2O1)n1cnc2c(ncnc21)NC/C=C/CNc1ncnc2c1ncn23` (some centres not stated), the GI50 in [1] was over 100 µM; in assay [2], over 100 µM; in assay [3], 43.7 µM; in assay [4] it was over 100 µM; in assay [5] it was over 100 µM; in assay [6] it was over 100 µM. In addition, the GI50 is over 100 µM in assay [7], over 100 µM in assay [8], 0.543 µM in assay [9] and over 100 µM in assay [10]. For the same molecule, the TGI in [1], in assay [2], in assay [3], in [4], in assay [5] and in assay [6] was over 100 µM throughout. For the same molecule, the TGI was over 100 µM in [7], over 100 µM in assay [8], 11.5 µM in [9] and over 100 µM in [10].
Turning to `CCOC(=O)N1CCc2cc(OC)c(OC)cc2/C1=C\c1ccc(OC)c(OC)c1`, the TGI was over 100 µM in assay [1]; 89.2 µM in assay [2]; 40.8 µM in assay [3]; 94 µM in assay [4]; 69.5 µM in [5]; 72 µM in assay [6]. Besides, the TGI was over 100 µM in assay [7], 85.6 µM in assay [8], 68.5 µM in [9] and 40.4 µM in [10].
Take `COC(=O)C1C(O)C(C)C(O)C(C)C=C(C)C2=C3C(=C(C)C(=O)c4c(O)c(c(C)c(OC(C)=O)c43)NC(=O)C(C)=C/C=C\C(C)C(O)C(C)C1O)OCO2` (configuration not stated): the TGI in [1] is 65.9 µM; in assay [2], over 100 µM; in assay [3], 70.2 µM; in assay [4], over 100 µM; in assay [5], over 100 µM; in assay [6], 67 µM. Further, the TGI in assay [7] was 44.9 µM; in [8], 99.6 µM; in assay [9] it was 99.4 µM; in assay [10], over 100 µM.
With `O=C1CCC(N2C(=O)c3ccccc3C2=O)C(=O)N1` (configuration not stated), the TGI in assay [1], in assay [2], in assay [3], in assay [4], in assay [5] and in assay [6] was over 100 µM each time. The TGI in assay [7], in assay [8], in [9] and in assay [10] was over 100 µM each time. The GI50 in assay [3] and in [9] was over 100 µM in each case.
For `CCCC(=O)N[C@H]1C2C3CC4C5CC(C42)C1(C)C53` (some centres not stated), the TGI in assay [1], in assay [2], in [3], in [4], in assay [5] and in assay [6] was over 100 µM in each case. Besides, the TGI in [7], in assay [8], in assay [9] and in [10] was over 100 µM in each case.
On to `c1ccc2c(-c3nc(-c4c[nH]c5ccncc45)cs3)c[nH]c2c1`, for which the GI50 in assay [1] is 1.56 µM; in assay [2] it was 1.78 µM; in [3] it was 2.07 µM; in [4], 1.72 µM; in [5], 1.21 µM; in assay [6], 1.44 µM. The GI50 in [7] was 2.51 µM; in assay [8], 2.02 µM; in assay [9], 10 µM; in assay [10] it was 1.71 µM. Besides, the TGI in [1] stood at 3.4 µM; in assay [2], 4.61 µM; in assay [3], 4.2 µM; in [4], 3.36 µM; in assay [5], 2.62 µM; in assay [6], 3.52 µM. The TGI amounted to 7.96 µM in [7], 4.4 µM in assay [8], 22.1 µM in assay [9] and 3.19 µM in assay [10].
In the case of `O=C(Oc1ccc(CO[N+](=O)[O-])cc1)c1ccccc1`, the GI50 was 0.172 µM in [1]; 0.407 µM in [2]; 0.136 µM in assay [3]; 0.113 µM in [4]; 0.172 µM in assay [5]; 0.0324 µM in assay [6]. Also, the GI50 is 0.167 µM in assay [7], 0.163 µM in assay [8], 1.07 µM in assay [9] and 0.101 µM in assay [10]. The TGI in [1] came to 0.358 µM; in assay [2], 1.59 µM; in assay [3], 0.27 µM; in assay [4] it was 0.236 µM; in assay [5], 0.322 µM; in assay [6], 0.173 µM. The TGI is 0.317 µM in [7], 0.33 µM in assay [8], 2.26 µM in assay [9] and 0.241 µM in [10].
Turning to `CC1CCSC(N(C(=O)N(C)c2ccccc2)c2ccccc2)=N1` (configuration not stated), the TGI in assay [1], in assay [2], in [3], in [4], in assay [5] and in assay [6] was over 100 µM each time. Also, the TGI in assay [7], in assay [8], in [9] and in assay [10] was over 100 µM each time.
Take `O=C(NCCc1ccccn1)OCc1nc2nc(Cl)nc(N3CCOCC3)c2[nH]1`: the GI50 in assay [1] is 1.74 µM; in [2], 2.93 µM; in assay [3], 1.98 µM; in assay [4], 1.29 µM; in [5], 1.28 µM; in assay [6], 2.18 µM. For the same molecule, the GI50 in assay [7] was 1.69 µM; in assay [8] it was 2.63 µM; in [9] it was 2.64 µM; in [10], 0.816 µM. Also, the TGI in assay [1] stood at 5.17 µM; in assay [2] it was 11.3 µM; in assay [3], 6.75 µM; in assay [4], 2.55 µM; in assay [5] it was 2.55 µM; in assay [6] it was 9.74 µM. The TGI in assay [7] came out at 3.8 µM; in assay [8], 10.8 µM; in [9] it was 10.4 µM; in assay [10] it was 2.09 µM.
Regarding `Cc1c(NC(=S)NC(=O)c2ccc([N+](=O)[O-])cc2)c(=O)n(-c2ccccc2)n1C`, the TGI in assay [1], in assay [2], in assay [3], in [4], in assay [5] and in assay [6] was over 100 µM throughout. Further, the TGI in [7], in [8], in assay [9] and in assay [10] was over 100 µM in each case.
